Key:
[1] = test system: brain-specific receptors (benzodiazepine binding); test: Inhibition of the binding of 3H-benzodiazepine to brain-specific receptors of rats; design: species or system rat (Wistar); conditions: 3H-diazepam (1.5 nM) or 3H-flunitrazepam (1.0 nM), rat cortex P2 fraction, pH 7.4, 30 minutes in ice; 12% or more = active; test concentration not given
From the text: Still another test utilized for the determination of anxiolytic activity is the measurement of the ability of a test compound to inhibit the binding of tritiated benzodiazepines to brain-specific receptors of mammals. A modification of the method described by R. F. Squires, et al., Nature, 266, No. 21:732 (April, 1977) and H. Mohler, et al., Science, 198:849 (1977) was employed.
Male albino rats (Wistar strain, weighing 150-200 g each) were used. The test compounds were solubilized in dimethylformamide, acetic acid, ethanol or hydrochloric acid.
Whole cortex of rats was homogenized gently in 20 volumes of ice-cold 0.32 M sucrose, centrifuged twice at 1000 g for 10 minutes and then recentrifuged at 30,000 g for 20 minutes to produce a crude P2 -synaptosomal fraction. The P2 -fraction was either: (1) resuspended in twice the original volume in hypotonic 50 mM Tris.HCl (pH 7.4), or (2) resuspended in one-half the original volume in hypotonic 10 mM Tris.HCl (pH 7.4) and frozen (-20° C.) until time of use. Frozen P2 preparations were thawed and resuspended in four times the original homogenizing volume at time of assay.
The binding assay consisted of 300 μl of the P2 -fraction suspension (0.2-0.4 mg protein), 100 μl of test drug and 100 μl of ^3 H-diazepam (1.5 nM, final concentration) or ^3 H-flunitrazepam (1.0 nM, final concentration) which was added to 1.5 ml of […] Tris.HCl (pH 7.4). Nonspecific binding controls and total binding controls received 100 μl of diazepam (3 μM final concentration) and 100 μl of deionized water, respectively, in place of the test compound. Incubation for 30 minutes proceeded in ice and was terminated by filtration, under vacuum, through glass fiber filters. The filters were washed twice with 5 ml of ice-cold 50 mM Tris.HCl (pH 7.4) and placed in scintillation vials. After drying at 50°-60° C. for 30 minutes, 10 ml of diluent was added and the radioactivity determined in a scintillation counter.
Inhibition of binding was calculated by the difference between total binding and binding in the presence of test compound, divided by the total binding, ×100. Physiological activity can be shown by a test compound that inhibits ^3 H-benzodiazepine binding by 12% or more.

[2] = test system: clonic seizures caused by pentylenetetrazole in rats; test: Protection against clonic seizures caused by pentylenetetrazole in rats; type: in vivo, rat; conditions: 25 mg/kg, oral or intraperitoneal; pentylenetetrazole 23 mg/kg i.v. at 30 or 60 minutes; active if >=50% protected
Protocol: The antianxiety properties of the novel compounds of the present invention have been established in a test which indicates anxiolytic activity by the measure of protection from convulsions resulting from the administration of pentylenetetrazole. Single or graded dose levels of the test compounds were administered orally or intraperitoneally in a 2% starch vehicle containing 0.5% v/v polyethylene glycol and one drop of polysorbate 80, or distilled water and one drop of polysorbate 80 to groups of at least 4 rats. At 30 or 60 minutes, the rats were treated intravenously with pentylenetetrazole at a dose of 23 mg/kg of body weight. This dose is estimated to cause clonic seizures in 99% of unprotected rats. The test compounds are considered active if they protect 50% or more of the rats from clonic seizures. It has been reported [R. T. Hill and D. H. Tedeschi, "Animal Testing and Screening Procedures in Evaluating Psychotropic Drugs" in "An Introduction to Psychopharmacology", pp. 237-288 (Eds. R. R. Rech and K. E. Moore, Raven Press, New York, 1971) that there is a high degree of correlation between antagonism of pentylenetetrazole seizures in rats and antianxiety effects in higher warm-blooded animals.

[3] = test system: Wistar strain male rats (conflict procedure); test: Non-conditioned passive avoidance (conflict) procedure in rats; type: in vivo, rat (Wistar); conditions: 25 mg/kg, oral, 60 minutes before test
Protocol: Another test used to assess antianxiety effects is a non-conditioned passive avoidance procedure described by J. R. Vogel, B. Beer and D. E. Clody, "A Simple and Reliable Conflict Procedure for Testing Antianxiety Agents", Psychopharmacologia, 21:1-7 (1971). A conflict situation is induced in rats by a modification of this method.
Groups of 8 naive, Wistar strain male rats weighing 200-240 g each were deprived of water for 48 hours. The test compounds were administered in single or graded, oral doses, suspended in 2% starch with 5% polyethylene glycol in distilled water and one drop of polysorbate 80. Control animals received the vehicle alone. At 60 minutes each rat was placed in an individual clear plastic chamber. Tap water was available ad libitum from a nipple located in a black box off the main chamber. A 0.7 milliampere AC shocking current was established between the stainless steel grid floor and the tap. After 20 licks of non-shocked drinking, a 2 second shocking current was administered to the rat. This ratio of 20 licks of non-shocked drinking followed by a 2 second shock was continued for a total of 3 minutes. The number of shocks taken by each rat during the 3 minute interval was recorded and compared to a control group. […]

[4] = test system: spontaneously hypertensive rats of the Okamoto strain; test: Reduction of mean arterial blood pressure in spontaneously hypertensive rats; type: in vivo, rat (Okamoto strain; conditions: 100 mg/kg or less by gavage, two doses 24 h apart; MABP at 28 hours; number of rats in parentheses in cell; untreated average 160±1.5 mm Hg
Protocol: Certain of the novel compounds of the present invention are active hypotensive agents at nontoxic doses when administered to mammals. These compounds were tested for hypotensive activity by the method of P. S. Chan and D. W. Poorvin, Clinical and Experimental Hypertension, 1 (6), 817-830 (1979). Male, 16 week old, spontaneously hypertensive rats of the Okamoto strain having an average mean arterial blood pressure of 160±1.5 mm of mercury are used in the test. One to three rats are used per test compound. A rat is dosed by gavage with a test compound, suspended in 2% pre-boiled starch at a concentration of 50 mg/ml, at a dose of 100 mg/kg of body weight or less, with 0.9% sodium chloride loading at a dose of 25 ml/kg of body weight. A second identical dose of the test compound, without sodium chloride loading is given 24 hours later. At 28 hours after the initial dose the mean arterial blood pressure is measured by the method of Chan and Poorvin vide supra. The procedure is repeated in a second and third rat when necessary.

[5] = test system: rats (stress induced immobility); test: Stress Induced Immobility Test; type: in vivo, rat; conditions: 25 mg/kg intraperitoneally, 15 minutes at 44.5° C.; control 200 seconds
Protocol: The compounds of this invention are active as antidepressant agents in warm-blooded animals as evidenced by their results when tested in the Stress Induced Immobility Test. In this test, rats were confined on a warm (44.5° C.), but aversive, surface for 15 minutes. After 5-6 minutes, control rats began to show episodes of behavior where they remained flat and immobile for periods of time. The total duration of this behavior was timed. The average duration of immobility in the control rats was 200 seconds. The test compounds were administered intraperitoneally at 25 mg/kg of body weight. A compound was considered active if the maximum duration time was <100 seconds (less than 50% of the control value) in more than 50% of the rats.

SMILES | % Inhibition of 3H-benzodiazepine binding [1] | MABP/mm Hg (no. of rats) [4] | further results
CCOC(=O)c1cnn2c1NCC=C2c1ccccc1 [4,5-Dihydro-7-phenylpyrazolo[1,5-a]pyrimidine-3-carboxylic acid, ethyl ester] | 54% | – | –
O=C(c1ccccc1)c1cnn2c1NCC=C2c1cccc(C(F)(F)F)c1 [[4,5-Dihydro-7-[3-(trifluoromethyl)phenyl]pyrazolo[1,5-a]pyrimidin-3-yl]phenylmethanone] | 76% | 122 mm Hg | % of Rats Protected (against clonic seizures) [2]: 75%; Result (no. of shocks per 3 min.) [3]: 19.1 no. of shocks per 3 min.
NC(=O)c1cnn2c1NCC=C2c1cccc(F)c1 [7-(3-Fluorophenyl)-4,5-dihydropyrazolo[1,5-a]pyrimidine-3-carboxamide] | 39% | – | –
CC1CC(c2cccc(Cl)c2)n2ncc(C#N)c2N1 (stereo not drawn) [7-(3-Chlorophenyl)-4,5,6,7,-tetrahydro-5-methylpyrazolo[1,5-a]pyrimidine-3-carbonitrile] | – | – | Mean Duration (Seconds) of immobility [5]: 75.4 s
CCOC(=O)c1cnn2c1NCC=C2c1cccc(C(F)(F)F)c1 [4,5-Dihydro-7-[3-(trifluoromethyl)phenyl]pyrazolo[1,5-a]pyrimidine-3-carboxylic acid, ethyl ester] | 90% | – | –
O=C(c1ccccc1)c1cnn2c1NCCC2c1ccncc1 (stereo not drawn) [Phenyl[4,5,6,7-tetrahydro-7-(4-pyridinyl)pyrazolo[1,5-a]pyrimidin-3-yl]methanone] | 22% | 125 mm Hg | –
CC1=C(c2cccc(Cl)c2)n2ncc(C#N)c2NC1 [7-(3-Chlorophenyl)-4,5-dihydro-6-methylpyrazolo[1,5-a]pyrimidine-3-carbonitrile] | – | – | Mean Duration (Seconds) of immobility [5]: 66.7 s
Cc1nn2c(c1C(N)=O)NCC=C2c1cc(Cl)ccc1Cl [7-(2,5-Dichlorophenyl)-4,5-dihydro-2-methylpyrazolo[1,5-a]pyrimidine-3-carboxamide] | – | 95 mm Hg | –
N#Cc1cnn2c1NCCC2c1cccc(C(F)(F)F)c1 (stereo not drawn) [4,5,6,7-Tetrahydro-7-[3-(trifluoromethyl)phenyl]pyrazolo[1,5-a]pyrimidine-3-carbonitrile] | – | 128 mm Hg | –
FC(F)(F)c1cccc(C2=CCNc3c(Cl)cnn32)c1 [3-Chloro-4,5-dihydro-7-[3-(trifluoromethyl)phenyl]pyrazolo[1,5-a]pyrimidine] | 63% | – | –
CN1CC=C(c2cccc(C(F)(F)F)c2)n2ncc(C#N)c21 [4,5-Dihydro-4-methyl-7-[3-(trifluoromethyl)phenyl]pyrazolo[1,5-a]pyrimidine-3-carbonitrile] | 12% | – | Result (no. of shocks per 3 min.) [3]: 19.0 no. of shocks per 3 min.
NC(=O)c1cnn2c1NCCC2 [4,5,6,7-Tetrahydropyrazolo[1,5-a]pyrimidine-3-carboxamide] | – | 137 mm Hg | –
CC(C)(C)C(=O)c1cnn2c1NCCC2 [2,2-Dimethyl-1-(4,5,6,7-tetrahydropyrazolo[1,5-a]pyrimidin-3-yl)-1-propanone] | 28% | 114 mm Hg | –
NC(=O)c1cnn2c1NCC=C2c1ccccc1 [4,5-Dihydro-7-phenylpyrazolo[1,5-a]pyrimidine-3-carboxamide] | – | – | % of Rats Protected (against clonic seizures) [2]: 50%
NC(=O)c1cnn2c1NCC=C2c1cccc(C(F)(F)F)c1 [4,5-Dihydro-7-[3-(trifluoromethyl)phenyl]pyrazolo[1,5-a]pyrimidine-3-carboxamide] | – | 108 mm Hg | –
N#Cc1cnn2c1NCC=C2c1ccc(Cl)c(Cl)c1 [7-(3,4-Dichlorophenyl)-4,5-dihydropyrazolo[1,5-a]pyrimidine-3-carbonitrile] | 12% | – | –
FC(F)(F)c1cccc(C2=CCNc3ccnn32)c1 [4,5-Dihydro-7-[3-(trifluoromethyl)phenyl]pyrazolo[1,5-a]pyrimidine] | 48% | – | –
N#Cc1cnn2c1NCC=C2c1ccccc1 [4,5-Dihydro-7-phenylpyrazolo[1,5-a]pyrimidine-3-carbonitrile] | 20% | – | –
N#Cc1cnn2c1NCC=C2c1cccc(C(F)(F)F)c1 [4,5-Dihydro-7-[3-(trifluoromethyl)phenyl]pyrazolo[1,5-a]pyrimidine-3-carbonitrile] | 15% | – | –
CC1=C(c2cccc(C(F)(F)F)c2)n2ncc(C#N)c2NC1 [4,5-Dihydro-6-methyl-7-[3-(trifluoromethyl)phenyl]pyrazolo[1,5-a]pyrimidine-3-carbonitrile] | – | – | Mean Duration (Seconds) of immobility [5]: 55.0 s
CC1CC(c2ccc(Cl)cc2)n2ncc(C#N)c2N1 (stereo not drawn) [7-(4-Chlorophenyl)-4,5,6,7-tetrahydro-5-methylpyrazolo[1,5-a]pyrimidine-3-carbonitrile] | – | – | Mean Duration (Seconds) of immobility [5]: 4.7 s

— patent publication US4847256A, “4,5-dihydro and 4,5,6,7-tetrahydropyrazolo(1,5-A)-pyrimidines” (American Cyanamid Company, priority 1986, dated 1989)
